Measured values: the supplement of paper PMC4862054

Experiments:
Details in all cases: incubation time: 72 h
[1] = tested on: CAL-148; assay: normalised viability (% of control), CellTiter-Blue; higher = more viable cells (about 100 = DMSO control)
Description: (§1)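 DSRT, CellTiter-Blue viability, 72 h incubation. Signal is normalised to DMSO and benzethonium chloride controls. Value is the normalised response at dose 7.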

[2] = tested on: CAL-51; assay: as above
Description: as §1

[3] = tested on: CAL-85-1; assay: as above
Description: as §1

[4] = tested on: DU-4475; assay: as above
Description: as §1

[5] = tested on: HDQ-P1; assay: as above
Description: as §1

[6] = tested on: MDA-MB-453; assay: as above
Description: as §1

[7] = tested on: BT-474; assay: as above
Description: (§2)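 DSRT, CellTiter-Blue viability, 72 h incubation. Signal is normalised to DMSO and benzethonium chloride controls. Value is the normalised response at dose 3.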

[8] = tested on: CAL-120; assay: as above
Description: as §2

[9] = tested on: CAL-51; assay: as above; remark: listed apart in the source
Description: as §2

[10] = tested on: BT-474; assay: drug sensitivity score (DSS), CellTiter-Blue viability (DSS (AUC-based score)); higher = stronger viability inhibition; extreme values may be limits of the assay
Description: (§3)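 DSRT with the CellTiter-Blue (resazurin reduction) viability readout, fluorescence 560/590 nm, 72 h incubation. Plates were normalised to DMSO and benzethonium chloride controls. DSS is computed from the area under the fitted dose-response curve (5 or 9 concentrations).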

[11] = tested on: BT-549; assay: as above
Description: as §3

[12] = tested on: CAL-120; assay: as above
Description: as §3

[13] = tested on: CAL-148; assay: as above
Description: as §3

[14] = tested on: CAL-51; assay: as above
Description: as §3

[15] = tested on: CAL-85-1; assay: as above
Description: as §3

[16] = tested on: DU-4475; assay: as above
Description: as §3

[17] = tested on: HCC1143; assay: as above
Description: as §3

[18] = tested on: HCC1599; assay: as above
Description: as §3

[19] = tested on: HCC1937; assay: as above
Description: as §3

[20] = tested on: HDQ-P1; assay: as above
Description: as §3

[21] = tested on: Hs578T; assay: as above
Description: as §3

[22] = tested on: MDA-MB-231; assay: as above
Description: as §3

[23] = tested on: MDA-MB-436; assay: as above
Description: as §3

[24] = tested on: MDA-MB-453; assay: as above
Description: as §3

[25] = tested on: MDA-MB-468; assay: as above
Description: as §3

[26] = tested on: MFM-223; assay: as above
Description: as §3

[27] = tested on: SK-BR-3; assay: as above
Description: as §3

SMILES | normalised viability [1] [%] | normalised viability [2] [%] | normalised viability [3] [%] | normalised viability [4] [%] | normalised viability [5] [%] | normalised viability [6] [%] | normalised viability ([7]; 100 nM) [%] | normalised viability ([8]; 100 nM) [%] | normalised viability ([9]; 10 nM) [%] | drug sensitivity score [10] | drug sensitivity score [11] | drug sensitivity score [12] | drug sensitivity score [13] | drug sensitivity score [14] | drug sensitivity score [15] | drug sensitivity score [16] | drug sensitivity score [17] | drug sensitivity score [18] | drug sensitivity score [19] | drug sensitivity score [20] | drug sensitivity score [21] | drug sensitivity score [22] | drug sensitivity score [23] | drug sensitivity score [24] | drug sensitivity score [25] | drug sensitivity score [26] | drug sensitivity score [27] | normalised viability ([7]; 10 nM) [%] | normalised viability ([8]; 10 nM) [%] | normalised viability ([9]; 1 nM) [%]
CN(N=O)C(=O)N[C@@H](C=O)[C@@H](O)[C@H](O)[C@H](O)CO [Streptozocin] (1000 nM) | 98.6 | 103 | 91.2 | 112 | 95.5 | 105 |  |  |  |  |  |  |  |  |  |  |  |  |  |  |  |  |  |  |  |  |  |  |  | 
Oc1nc(-c2ccc(C(F)(F)F)cc2)nc2c1CSCC2 [XAV-939] |  |  |  |  |  |  | 107 | 97.2 | 98.8 | 0 | 0 | 0 | 0 | 0 | 0 | 0 | 7.23 | 0 | 0 | 0.887 | 0 | 2.73 | 0 | 0 | 0 | 0 | 0 |  |  | 
CNCc1ccc(-c2[nH]c3cc(F)cc4c3c2CCNC4=O)cc1 [Rucaparib] (1000 nM) | 92.2 | 103 | 85.4 | 82.3 | 89.6 | 102 |  |  |  |  |  |  |  |  |  |  |  |  |  |  |  |  |  |  |  |  |  |  |  | 
CC(=O)Nc1ccc(C(=O)Nc2ccccc2N)cc1 [CI-994] |  |  |  |  |  |  |  |  |  | 0 | 0 | 0 | 0 | 0 | 0 | 0 | 0 | 0 | 0 | 0 | 0 | 0 | 0 | 0 | 0 | 0 | 0 | 106 | 114 | 94
N.N.[Cl][Pt][Cl] [Cisplatin] |  |  |  |  |  |  | 127 | 86.5 | 108 | 0 | 0 | 0 | 0 | 0 | 0 | 0 | 0 | 0 | 0 | 0 | 0 | 0 | 0 | 0 | 0 | 0 | 0 |  |  | 
C=C(c1ccc(C(=O)O)cc1)c1cc2c(cc1C)C(C)(C)CCC2(C)C [Bexarotene] (1000 nM) | 96.6 | 80.6 | 84.5 | 116 | 76 | 86.5 |  |  |  |  |  |  |  |  |  |  |  |  |  |  |  |  |  |  |  |  |  |  |  | 
C#Cc1cccc(Nc2ncnc3cc(OCCOC)c(OCCOC)cc23)c1 [Erlotinib] (1000 nM) | 63 | 92 | 62.4 | 94.8 | 71.6 | 91.4 |  |  |  |  |  |  |  |  |  |  |  |  |  |  |  |  |  |  |  |  |  |  |  | 
C[C@@H](Oc1cc(-c2cnn(C3CCNCC3)c2)cnc1N)c1c(Cl)ccc(F)c1Cl [Crizotinib] (1000 nM) | 96.4 | 108 | 86.9 | 108 | 92.5 | 91.9 |  |  |  |  |  |  |  |  |  |  |  |  |  |  |  |  |  |  |  |  |  |  |  | 
Cc1ccc(C(=O)Nc2ccc(CN3CCN(C)CC3)c(C(F)(F)F)c2)cc1C#Cc1cnc2cccnn12 [Ponatinib] (100 nM) | 94.8 | 82.9 | 89.3 | 104 | 92.8 | 77.7 |  |  |  |  |  |  |  |  |  |  |  |  |  |  |  |  |  |  |  |  |  |  |  | 
CN[C@@H]1C[C@H]2O[C@@](C)([C@@H]1OC)n1c3ccccc3c3c4c(c5c6ccccc6n2c5c31)C(=O)N[C@H]4O [UCN-01] (1000 nM) | 81.5 | 16.8 | 33.7 | 10.1 | 32.1 | 30.2 |  |  |  |  |  |  |  |  |  |  |  |  |  |  |  |  |  |  |  |  |  |  |  | 
